Key:
[1] = molecular target: T1, MAP/microtubule affinity-regulating kinase 4 (Homo sapiens) (UniProt Q96L34); test: MARK4 SGC Tm panel (DSF); conditions: for ΔTm: Compound concentration 10.0 uM
T1 sequence (whole entry): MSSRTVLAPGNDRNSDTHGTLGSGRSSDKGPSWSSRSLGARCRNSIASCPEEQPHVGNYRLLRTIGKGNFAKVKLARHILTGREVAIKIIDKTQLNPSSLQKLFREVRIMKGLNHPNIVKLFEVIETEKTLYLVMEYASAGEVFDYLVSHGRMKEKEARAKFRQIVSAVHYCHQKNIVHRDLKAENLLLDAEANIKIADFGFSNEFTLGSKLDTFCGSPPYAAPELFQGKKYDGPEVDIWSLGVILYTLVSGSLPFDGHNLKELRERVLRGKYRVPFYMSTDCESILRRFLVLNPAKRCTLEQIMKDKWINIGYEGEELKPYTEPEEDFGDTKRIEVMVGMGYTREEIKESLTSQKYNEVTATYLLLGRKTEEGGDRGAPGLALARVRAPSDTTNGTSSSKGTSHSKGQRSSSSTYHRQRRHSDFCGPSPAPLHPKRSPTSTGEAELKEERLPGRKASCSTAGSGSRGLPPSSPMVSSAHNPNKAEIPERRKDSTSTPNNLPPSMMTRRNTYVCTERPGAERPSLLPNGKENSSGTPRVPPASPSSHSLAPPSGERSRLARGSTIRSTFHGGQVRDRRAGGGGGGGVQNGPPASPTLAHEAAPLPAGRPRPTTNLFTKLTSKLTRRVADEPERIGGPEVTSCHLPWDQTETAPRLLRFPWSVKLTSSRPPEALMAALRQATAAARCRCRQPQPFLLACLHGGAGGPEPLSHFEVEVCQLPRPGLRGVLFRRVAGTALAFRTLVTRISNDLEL

[2] = molecular target: T2, Cyclin-G-associated kinase (Homo sapiens) (UniProt O14976); test: GAK SGC Tm panel (DSF); conditions: for ΔTm: Compound concentration 10.0 uM
T2 sequence (whole entry): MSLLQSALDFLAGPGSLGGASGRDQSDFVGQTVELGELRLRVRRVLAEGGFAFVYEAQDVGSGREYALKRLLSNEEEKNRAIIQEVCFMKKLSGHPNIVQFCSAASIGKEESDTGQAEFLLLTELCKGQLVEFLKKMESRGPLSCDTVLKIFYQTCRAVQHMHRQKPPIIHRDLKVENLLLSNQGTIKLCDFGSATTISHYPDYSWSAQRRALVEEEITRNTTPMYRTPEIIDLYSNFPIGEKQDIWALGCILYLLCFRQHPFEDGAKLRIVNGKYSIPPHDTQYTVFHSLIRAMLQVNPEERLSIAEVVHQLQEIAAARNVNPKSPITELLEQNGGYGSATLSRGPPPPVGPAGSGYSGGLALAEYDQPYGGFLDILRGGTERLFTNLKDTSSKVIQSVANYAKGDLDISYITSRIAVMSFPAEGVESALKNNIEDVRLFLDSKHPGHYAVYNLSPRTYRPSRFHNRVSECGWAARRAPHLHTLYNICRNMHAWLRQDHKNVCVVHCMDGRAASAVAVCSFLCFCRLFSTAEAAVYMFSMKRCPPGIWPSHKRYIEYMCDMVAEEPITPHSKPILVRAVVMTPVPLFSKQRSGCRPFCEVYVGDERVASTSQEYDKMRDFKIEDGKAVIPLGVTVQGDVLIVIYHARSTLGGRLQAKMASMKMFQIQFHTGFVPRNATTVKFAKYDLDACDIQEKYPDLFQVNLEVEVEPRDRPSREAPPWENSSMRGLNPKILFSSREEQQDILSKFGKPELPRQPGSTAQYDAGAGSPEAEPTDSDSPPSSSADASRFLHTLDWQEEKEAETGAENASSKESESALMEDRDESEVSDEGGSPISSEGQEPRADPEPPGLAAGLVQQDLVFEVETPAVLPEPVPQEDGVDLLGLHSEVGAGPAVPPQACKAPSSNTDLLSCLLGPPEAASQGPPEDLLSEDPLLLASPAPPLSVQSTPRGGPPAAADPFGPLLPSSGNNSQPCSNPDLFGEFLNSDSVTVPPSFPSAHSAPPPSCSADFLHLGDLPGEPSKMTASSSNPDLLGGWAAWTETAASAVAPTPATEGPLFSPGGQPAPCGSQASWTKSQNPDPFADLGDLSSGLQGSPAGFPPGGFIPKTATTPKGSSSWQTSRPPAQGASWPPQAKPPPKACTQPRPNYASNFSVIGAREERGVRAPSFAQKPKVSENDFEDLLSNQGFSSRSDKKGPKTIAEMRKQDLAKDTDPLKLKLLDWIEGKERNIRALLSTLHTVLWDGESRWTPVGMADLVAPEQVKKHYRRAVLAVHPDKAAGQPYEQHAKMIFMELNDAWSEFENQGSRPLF

[3] = molecular target: GABA-A receptor; anion channel (Rattus norvegicus) (UniProt O09028+P15431+P18506+P18508+P19969+P20236+P23574+P23576+P28471+P28473+P30191+P62813+P63079+P63138+Q91ZM7+Q9ES14); conditions: Compound concentration 10.0 uM
[4] = molecular target: T3, Dual specificity tyrosine-phosphorylation-regulated kinase 2 (Homo sapiens) (UniProt Q92630); test: DYRK2 SGC Tm panel (DSF); conditions: for ΔTm: Compound concentration 10.0 uM
T3 sequence (whole entry): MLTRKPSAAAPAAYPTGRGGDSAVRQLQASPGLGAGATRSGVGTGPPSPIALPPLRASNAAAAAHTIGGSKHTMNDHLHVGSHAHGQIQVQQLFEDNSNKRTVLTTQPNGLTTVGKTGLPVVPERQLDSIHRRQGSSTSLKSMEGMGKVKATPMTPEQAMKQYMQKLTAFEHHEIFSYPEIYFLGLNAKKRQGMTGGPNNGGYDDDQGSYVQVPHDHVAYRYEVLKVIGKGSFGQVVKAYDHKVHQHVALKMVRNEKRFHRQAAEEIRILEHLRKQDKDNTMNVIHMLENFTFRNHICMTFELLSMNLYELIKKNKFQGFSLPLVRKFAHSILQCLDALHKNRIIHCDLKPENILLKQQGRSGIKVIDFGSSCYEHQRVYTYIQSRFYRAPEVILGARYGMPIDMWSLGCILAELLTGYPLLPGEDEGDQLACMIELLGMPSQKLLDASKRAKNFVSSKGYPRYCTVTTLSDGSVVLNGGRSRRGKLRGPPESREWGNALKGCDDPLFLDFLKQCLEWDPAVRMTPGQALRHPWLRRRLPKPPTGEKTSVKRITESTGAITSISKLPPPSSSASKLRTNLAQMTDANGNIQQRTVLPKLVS

[5] = molecular target: D(2) dopamine receptor (Homo sapiens) (UniProt P14416); conditions: Compound concentration 10.0 uM
Sequence of D(2) dopamine receptor (Homo sapiens) (P14416 whole entry): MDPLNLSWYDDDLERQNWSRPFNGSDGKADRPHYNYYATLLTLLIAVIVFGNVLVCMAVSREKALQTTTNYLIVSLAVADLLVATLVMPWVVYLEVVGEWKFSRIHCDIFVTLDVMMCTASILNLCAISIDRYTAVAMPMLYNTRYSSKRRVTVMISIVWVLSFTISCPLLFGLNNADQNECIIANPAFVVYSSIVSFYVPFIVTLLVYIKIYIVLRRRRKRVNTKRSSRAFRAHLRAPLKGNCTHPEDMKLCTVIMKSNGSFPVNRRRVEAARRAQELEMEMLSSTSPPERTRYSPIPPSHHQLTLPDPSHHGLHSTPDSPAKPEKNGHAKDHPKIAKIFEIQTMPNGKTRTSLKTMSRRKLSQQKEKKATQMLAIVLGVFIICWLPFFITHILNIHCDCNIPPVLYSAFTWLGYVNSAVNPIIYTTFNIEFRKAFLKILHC

Compound	delta Tm Staurosporine positive control [1]	ΔTm [1]	delta Tm Staurosporine positive control [2]	ΔTm [2]	inhibition [3] [%]	delta Tm Staurosporine positive control [4]	ΔTm [4]	inhibition [5] [%]
CCC[C@@H]1CNCc2c1[nH]c(=O)c(C#N)c2N1CCC2(CC1)CC2	15.9	0.243	9.89	-1.01	-5.59	5.55	-0.189	-4.21
CCC[C@H]1CNCc2c1[nH]c(=O)c(C#N)c2N1CCC2(CC1)CC2	15.9	-0.175	9.89	-1.15	3.16	5.55	-0.198	3.01

From ChEMBL document CHEMBL5303765, “Data for DCP probe BAY-7081” (2023)
